ChEMBL document CHEMBL1201862, “PubChem BioAssay data set” (2004)
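Test compounds were applied to cells in 96-well plates for 48 hours at 5 doses. GI50: concentration for 50% inhibition of growth.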 Active and inactive are the calls of the source. Rule as the data show it: active = GI50 up to about 1.1 µM and inactive = higher.

Key:
Test in all cases: inhibition of tumour cell growth, NCI panel, 48 h
SK-MEL-2 = system: SK-MEL-2
Malme-3M = system: Malme-3M
OVCAR-8 = system: OVCAR-8
CCRF-CEM = system: CCRF-CEM
SR = system: SR
A549 = system: A549
Hs-578T = system: Hs-578T
HCT-15 = system: HCT-15
MDA-MB-231 = system: MDA-MB-231
ACHN = system: ACHN
T47D = system: T47D
HCC 2998 = system: HCC 2998
MDA-N = system: MDA-N
U-251 = system: U-251
OVCAR-5 = system: OVCAR-5
DU-145 = system: DU-145
MDA-MB-435 = system: MDA-MB-435
HL-60 = system: HL-60
RPMI-8226 = system: RPMI-8226
NCI-H522 = system: NCI-H522
MCF7 = system: MCF7
SK-OV-3 = system: SK-OV-3
UACC-257 = system: UACC-257
MOLT-4 = system: MOLT-4
COLO 205 = system: COLO 205
SNB-75 = system: SNB-75
UO-31 = system: UO-31
RXF 393 = system: RXF 393
NCI-H23 = system: NCI-H23
786-0 = system: 786-0
NCI-H226 = system: NCI-H226
M14 = system: M14
SK-MEL-5 = system: SK-MEL-5
EKVX = system: EKVX
OVCAR-4 = system: OVCAR-4
PC-3 = system: PC-3
SK-MEL-28 = system: SK-MEL-28
UACC-62 = system: UACC-62
IGROV-1 = system: IGROV-1
TK-10 = system: TK-10
SN12C = system: SN12C
NCI/ADR-RES = system: NCI/ADR-RES
HOP-92 = system: HOP-92
HCT-116 = system: HCT-116
OVCAR-3 = system: OVCAR-3
SF-539 = system: SF-539
K562 = system: K562
SF-295 = system: SF-295
SW-620 = system: SW-620
SNB-19 = system: SNB-19
KM12 = system: KM12
A498 = system: A498
SF-268 = system: SF-268
HT-29 = system: HT-29
BT-549 = system: BT-549
CAKI-1 = system: CAKI-1
NCI-H460 = system: NCI-H460
HOP-62 = system: HOP-62
LOX IMVI = system: LOX IMVI

## Cc1cc(C)c2c(c1)CC1(Cc3c(ccc(C)c3C)C1=O)C2=O (centres undefined)
SK-MEL-2
  GI50: > 100 µM (inactive)
Malme-3M
  GI50: > 100 µM (inactive)
OVCAR-8
  GI50: > 100 µM (inactive)
CCRF-CEM
  GI50: > 100 µM (inactive)
SR
  GI50: > 100 µM (inactive)
A549
  GI50: > 100 µM (inactive)
Hs-578T
  GI50: > 100 µM (inactive)
HCT-15
  GI50: > 100 µM
MDA-MB-231
  GI50: > 100 µM (inactive)
ACHN
  GI50: > 100 µM (inactive)
T47D
  GI50: > 100 µM (inactive)
HCC 2998
  GI50: > 100 µM (inactive)
MDA-N
  GI50: > 100 µM (inactive)
U-251
  GI50: > 100 µM (inactive)
OVCAR-5
  GI50: > 100 µM (inactive)
DU-145
  GI50: > 100 µM (inactive)
MDA-MB-435
  GI50: > 100 µM (inactive)
HL-60
  GI50: > 100 µM (inactive)
RPMI-8226
  GI50: > 100 µM (inactive)
NCI-H522
  GI50: > 100 µM (inactive)
MCF7
  GI50: > 100 µM (inactive)
SK-OV-3
  GI50: > 100 µM (inactive)
UACC-257
  GI50: > 100 µM (inactive)
MOLT-4
  GI50: > 100 µM (inactive)
COLO 205
  GI50: > 10 µM (inactive)
SNB-75
  GI50: > 100 µM (inactive)
UO-31
  GI50: > 100 µM (inactive)
RXF 393
  GI50: > 100 µM (inactive)
NCI-H23
  GI50: > 100 µM (inactive)
786-0
  GI50: > 100 µM (inactive)
NCI-H226
  GI50: > 100 µM (inactive)
M14
  GI50: > 100 µM (inactive)
SK-MEL-5
  GI50: > 100 µM (inactive)
EKVX
  GI50: > 100 µM (inactive)
OVCAR-4
  GI50: > 100 µM (inactive)
PC-3
  GI50: > 100 µM (inactive)
SK-MEL-28
  GI50: > 100 µM (inactive)
UACC-62
  GI50: > 100 µM (inactive)
IGROV-1
  GI50: > 100 µM (inactive)
TK-10
  GI50: > 100 µM (inactive)
SN12C
  GI50: > 100 µM (inactive)
NCI/ADR-RES
  GI50: > 100 µM (inactive)
HOP-92
  GI50: > 100 µM (inactive)
HCT-116
  GI50: > 100 µM (inactive)
OVCAR-3
  GI50: > 100 µM (inactive)
SF-539
  GI50: > 100 µM (inactive)
K562
  GI50: > 100 µM (inactive)
SF-295
  GI50: > 100 µM (inactive)
SW-620
  GI50: > 100 µM (inactive)
SNB-19
  GI50: > 100 µM (inactive)
KM12
  GI50: > 100 µM (inactive)
A498
  GI50: > 100 µM (inactive)
SF-268
  GI50: > 100 µM (inactive)
HT-29
  GI50: > 100 µM (inactive)
BT-549
  GI50: > 100 µM (inactive)
CAKI-1
  GI50: > 100 µM (inactive)
NCI-H460
  GI50: > 100 µM (inactive)

## COc1ccc(C(OCC2OC(n3cc(C)c(=O)[nH]c3=O)CC2n2cc(Cn3cc(F)c(=O)[nH]c3=O)nn2)(c2ccccc2)c2ccccc2)cc1 (centres undefined)
SK-MEL-2
  GI50: 6.31 µM (inactive)
Malme-3M
  GI50: 9.04 µM (inactive)
OVCAR-8
  GI50: 9.57 µM (inactive)
CCRF-CEM
  GI50: 2.56 µM (inactive)
SR
  GI50: 2.51 µM (inactive)
A549
  GI50: 4.1 µM (inactive)
Hs-578T
  GI50: 6.97 µM (inactive)
HCT-15
  GI50: 4.5 µM
MDA-MB-231
  GI50: 2.69 µM (inactive)
ACHN
  GI50: 10.8 µM (inactive)
T47D
  GI50: 5.71 µM (inactive)
HCC 2998
  GI50: 3.31 µM (inactive)
HOP-62
  GI50: 4.1 µM (inactive)
MDA-N
  GI50: 1.54 µM (inactive)
U-251
  GI50: 3.78 µM (inactive)
OVCAR-5
  GI50: 10.4 µM (inactive)
DU-145
  GI50: 6.44 µM (inactive)
MDA-MB-435
  GI50: 1.75 µM (inactive)
HL-60
  GI50: 2.63 µM (inactive)
RPMI-8226
  GI50: 3.04 µM (inactive)
LOX IMVI
  GI50: 4.38 µM (inactive)
NCI-H522
  GI50: 3.77 µM (inactive)
MCF7
  GI50: 3.54 µM (inactive)
SK-OV-3
  GI50: 5.3 µM (inactive)
UACC-257
  GI50: 11.5 µM (inactive)
MOLT-4
  GI50: 4.54 µM (inactive)
COLO 205
  GI50: 4.97 µM (inactive)
SNB-75
  GI50: 12.6 µM (inactive)
UO-31
  GI50: 9.73 µM (inactive)
RXF 393
  GI50: 10.6 µM (inactive)
NCI-H23
  GI50: 8.28 µM (inactive)
786-0
  GI50: 3.67 µM (inactive)
NCI-H226
  GI50: 4.42 µM (inactive)
M14
  GI50: 4.58 µM (inactive)
SK-MEL-5
  GI50: 7.82 µM (inactive)
EKVX
  GI50: 5.65 µM (inactive)
OVCAR-4
  GI50: 16.4 µM (inactive)
PC-3
  GI50: 4.33 µM (inactive)
SK-MEL-28
  GI50: 11.3 µM (inactive)
UACC-62
  GI50: 11 µM (inactive)
IGROV-1
  GI50: 7.96 µM (inactive)
TK-10
  GI50: 13.6 µM (inactive)
SN12C
  GI50: 5.71 µM (inactive)
NCI/ADR-RES
  GI50: 31.6 µM (inactive)
HOP-92
  GI50: 2.62 µM (inactive)
HCT-116
  GI50: 3.38 µM (inactive)
OVCAR-3
  GI50: 5.26 µM (inactive)
SF-539
  GI50: 4.23 µM (inactive)
SF-295
  GI50: 3.26 µM (inactive)
SW-620
  GI50: 3.72 µM (inactive)
SNB-19
  GI50: 6.07 µM (inactive)
KM12
  GI50: 4.25 µM (inactive)
A498
  GI50: 10.1 µM (inactive)
SF-268
  GI50: 5.06 µM (inactive)
HT-29
  GI50: 6.28 µM (inactive)
BT-549
  GI50: 11.1 µM (inactive)
CAKI-1
  GI50: 8.38 µM (inactive)
